Assay results reported in article PMC12030062, “From In Vitro Cytotoxicity to In Vivo Zebrafish Assays: A Study on 3,3-Dichloro β-, γ- and δ-Lactams and Their Biological Activity Profiles” (Pharmaceuticals, 2025).
In brackets after ≈: the same amount, converted by molar mass.

Tests used:
[1] = Fish embryo acute toxicity (FET): lethality and dysmorphogenesis; format: in vivo; details: zebrafish, in vivo, exposure 2 to 72 hpf, read at 72 hpf
Protocol: (§1) Zebrafish provide a widely used vertebrate model for cost-effective, in vivo whole-organism screening.
(§2) (2 mM CaCl2•2 H2O; 0.5 mM MgSO4•7 H2O; 0.75 mM NaHCO3; 0.07 mM KCl). The fish were maintained at a temperature of 26 ± 1 °C on a 14-h light and 10-h dark cycle and were fed daily in the morning with Artemia salina, then with commercial flake food in the afternoon (SDS400, Special Diet Services, Dietex, France). For optimal Zebrafish reproduction, we used animals between 6 months and a year old. The day before the eggs were needed, males and females were placed in a breeding tank with plants at a 2:1 male-to-female ratio (usually using 8 males and 4 females in a big breeding tank). The following morning, eggs were collected 30 min after the lights were turned on. […] Fertilized, non-coagulated, and synchronously divided eggs were selected using a stereomicroscope (Motic SMZ168, Motic Hong Kong Ltd., Hong Kong, China) and transferred to 6-well plates (10 embryos/well). The embryos were exposed to freshly prepared tested concentrations of the compound in 0.3× Danieau’s solution. The chemical stock solution was prepared in 100% dimethylsulfoxide (DMSO) and subsequently diluted in Danieau’s buffer with a final DMSO concentration of 1% (v/v). Testing was carried out using five concentrations with a negative control of solvent with 1% of DMSO. Embryos were incubated at 27 ± 1 °C with a light:dark cycle of 14:10 h until 72 h post-fertilization (hpf) under semi-static conditions, as exposure solutions were renewed with freshly prepared solutions every 24 h. • Lethality and dysmorphogenesis evaluation At 24, 48, and 72 hpf, the embryos were observed under a stereomicroscope to assess lethality. […] At the end of the test, dysmorphogenesis was evaluated in the live embryos only. The average lethality and dysmorphogenesis were calculated for 10 embryos per concentration, followed by averaging the results of at least three independent experiments. […] Subsequently, the TER test was conducted according to the protocol described by Guzman et al.. […] The distance was averaged and converted from pixels to millimeters. This assay was performed only on larvae from concentration groups where both the lethality and dysmorphogenesis were less than 20%. Six larvae per concentration group were evaluated in at least three independent experiments. • Statistical analysis Statistical analysis was performed using GraphPad Prism v.10.0.2. The TER test was analyzed using a one-way ANOVA and a post hoc multiple-comparison Dunnett test. The significance threshold was established at p < 0.05.

[2] = tested on: Zebrafish embryos; test: as above; format: in vivo
Protocol: as §1, §2

[3] = tested on: murine Swiss albino fibroblast (3T3) cell line; test: Cell viability, MTT assay, 3T3; format: cell-based; details: 24 h incubation, MTT endpoint
Protocol: Two different endpoints, 3-(4,5-dimethyl-2-thiazolyl)-2,5-diphenyltetrazolium bromide (MTT) and neutral red uptake (NRU), were used to assess differences in cell-induced cytotoxicity. […] In addition, NRU evaluates the interaction of these drugs with the plasmatic membrane. Cell responses were determined from the MTT [16] and NRU [17] assays, using the two proposed cell lines. Cytotoxicity assays were performed at concentrations equal to 80 and 250 µg/mL. The IC50 value, referring to the half-maximal inhibitory concentration, was determined as a key parameter in cytotoxicity studies (Table 1). It plays a crucial role in evaluating cell viability and assessing cellular responses to various drugs or toxins. For cases where IC50 values were below 80 µg/mL, additional studies at lower concentrations were conducted to accurately determine these values. […] The selectivity index (SI), used as a measurement of action against the tumor cell line in comparison with a normal cell line, was also included.
• In Vitro Assay Using Human Erythrocytes • - Acquisition and Extraction of the Erythrocytes Human blood samples were obtained from the Banc de Sang i Teixits de Barcelona (Spain) from the Catalan Department of Health. Blood was deposited in tubes with the anticoagulant EDTA-K3. Blood samples were centrifuged at 3000 rpm and 4 °C for 10 min (Megafuge 2.0 R. Heraeus Instruments, Hanau, Germany) to induce sedimentation. Plasma was extracted with a Pasteur pipette. Next, the residual pellet was washed with PBS at pH 7.4. This procedure was repeated three times to remove residual leukocytes and platelets and to concentrate the erythrocytes. Following the last wash, the erythrocyte suspension was diluted (1:1) in PBS at pH 7.4 to obtain a suitable erythrocyte suspension (cell density of 8 × 10^9 cell/mL). • - Hemolysis Assay The hemolysis assay determined the capability of different compounds to induce the hemolysis of the erythrocyte membrane. Stock solutions of each compound at 1 mg/mL in PBS at pH 7.4 were prepared. Different volumes (10–80 μL) were placed in polystyrene tubes, and an aliquot of 25 µL of the erythrocyte suspensions was added to each tube. The final volume was 1 mL. The tubes were incubated at room temperature under rotatory conditions. Then, the tubes were centrifuged at 10,000 rpm for 5 min. The supernatants’ absorbance at 540 nm (Shimadzu UV-160A, Shimadzu, Duisburg, Germany) was compared with that of the positive (erythrocytes hemolyzed with distilled water) and negative (erythrocyte suspension in PBS at pH 7.4) controls. The degree of hemolysis was determined using the following equation: Hemolysis (%) = 100 × (Abs − Abs0)/(Abs100 − Abs0) where Abs, Abs0, and Abs100 are the absorbance of the test samples, of the suspension treated with isotonic phosphate–buffered saline (PBS), and of the suspension of complete hemolysis treated with distilled water, respectively. • In Vitro Essay Using Cell Cultures The murine Swiss albino fibroblasts (3T3) and the squamous cell carcinoma (A431) cell lines were obtained from Celltec UB. Cells were grown in DMEM medium (4.5 g/L glucose) supplemented with 10% (v/v) FBS, 2 mM L-glutamine, 100 U/mL penicillin, and 100 µg/mL streptomycin at 37 °C with 5% CO2. Cells were routinely cultured in 75 cm^2 culture flasks and were trypsinized using trypsin–EDTA when the cells reached approximately 80% confluence. The trypan blue assay, which allows for the direct identification and enumeration of the live (unstained) and dead (blue) cells in the cell population, was used to evaluate the viability of the cells in the cell suspension obtained. • - Cell Viability Assays Cell lines of 3T3 (1 × 10^5 cells/mL) and A431 (5 × 10^4 cells/mL) were grown at defined densities in the 60 central wells of a 96-well plate. The cells were incubated for 24 h in 5% CO2 at 37 °C. […]

CC(C)(C)N1C(=O)C(Cl)(Cl)C1c1ccccc1 (centres unmarked) [Compound 1]
LC50 [1]: 14.9 mg/L (≈ 54.8 µM) | EC50 ([2]; Danio rerio, read-out: EC50 (dysmorphogenesis)): 5.23 mg/L (≈ 19.2 µM) | teratogenic index (TI) ([2]; TI = LC50/EC50): 2.85 | teratogenicity classification ([2]; TI > 2): potential teratogen | morphological abnormalities ([2]; embryos exposed 2 to 72 hpf): pericardial edema, large yolk sacs, and flexion abnormalities | LC50 (lethality) ([2]; exposure 2 to 72 hpf, read at 72 hpf): 14.9 mg/L (≈ 54.7 µM) | IC50 (MTT) 3T3 [3]: 210.42 ± 2.40 mg/L (≈ 773 µM) | IC50 ([3]; Mus musculus, 24 h): 210 mg/L (≈ 772 µM)
